Assay results: patent EP1209147A1, “CARBOXYLIC ACID DERIVATIVES AND ADHESION MOLECULE INHIBITORS CONTAINING THE SAME AS THE ACTIVE INGREDIENT” (TORAY INDUSTRIES, INC., priority 1999, dated 2001)

Columns and labels:
[1] = tested on: Mouse Asthma Model; assay: Mouse asthma model (OVA, intranasal induction); type: in vivo, BLAB/c mouse; details: 750 µg per time intranasally; BALF on DAY-28; Fig. 2
Method: Equivolume of 10% KAI(SO4)2·12H2O (WAKO) solution and ovalbumin (hereinafter "OVA") solution (500 µg/ml) were mixed, and 10N NaOH was slowly added to neutralize the solution to obtain Al(OH)3 gel (OVA 500 µg/ml) on which OVA was adsorbed. The obtained product was intraperitoneally administered to each BLAB/c mouse (female, 7 weeks old, JAPAN CHARLES RIVER) at a dose of 200 µl (100 µg) per mouse on DAY-0 and DAY-14. Thereafter, on DAY-14, 50 µl of 2 mg/ml solution of OVA in physiological saline was intranasally administered, and on DAY-25, 26 and 27, 50 µl of 1 mg/ml solution of OVA in physiologically saline was intranasally administered to induce inflammation. Compound No. 140 used as the test compound was dissolved in physiological saline and the solution was intranasally administered at 30 minutes before induction with OVA, at 8 hours after induction, and on DAY-25, 26 and 27, twice a day, at a dose of 750 µg per time. To the background group and control group, physiological saline was intranasally administered.
On DAY-28, bronchus of each mouse was incised and the bronchus and alveoli were washed (BAL) 4 times with 0.7 ml of physiological saline. […] After staining the specimen by May-Giemsa staining method, the leukocytes were grouped and counted under microscope to determine the number of eosinophils. […]

[2] = tested on: Guinea Pig Rhinitis Model; assay: Guinea pig rhinitis model (OVA, respiratory resistance); type: in vivo, Harley guinea pig; details: 10 mg intranasally before induction by the antigen; 10 minutes to 8 hours after induction; Fig. 3
Method: Cyclophosphamide (SIGMA) was dissolved in physiological saline to a concentration of 25 mg/ml, and the solution was intraperitoneally administered to each Harley guinea pig (male, 2 weeks old, JAPAN SLC) at a dose of 50 mg/kg on DAY-0. Equivolume of OVA (2.0 mg/ml) dissolved in physiological saline and 12 ml of aqueous 9% AlK(SO4)2 solution were mixed, and then 10% aqueous Na2CO3 solution was added thereto to adjust the pH to 6.5, thereby obtaining Al(OH)3 gel (OVA 500 µg/ml) on which OVA was adsorbed. The obtained product was centrifuged and the precipitated gel was washed with PBS(-), followed by addition of Bordetella pertussis cell suspension (WAKO PURE CHEMICALS). The OVA concentration was adjusted to 100 µg/ml, and 1 ml (100 µg) of the resulting product was intraperitoneally administered to each guinea pig. On DAY-22, each mice was made to inhale 1% OVA dissolved in physiological saline for 10 minutes. […] The increase in the respiratory resistance from 10 minutes after the induction to 8 hours after the induction was measured by a respiratory resistance-measuring apparatus (body plethysmograph method; SHIZUME MEDICAL), and the result was expressed in terms of the ratio of the measured resistance based on the respiratory resistance measured before the induction by the antigen. […]

[3] = tested on: Mouse Peritonitis Induced by Ragweed Pollen; assay: Mouse peritonitis induced by ragweed pollen; type: in vivo, BLAB/c mouse; details: 400 mg/kg intravenously, totally 5 times; 48 hours after induction
Method: Ragweed pollen extract 1:100 (TORII PHARMACEUTICAL) was diluted by 10-fold with physiological saline, and the resulting solution was used as an antigen for sensitization. This antigen solution was subcutaneously administered to each BLAB/c mouse (female, 6 weeks old, JAPAN CHARLES RIVER) in an amount of 100 µl each on DAY-0 and DAY-1, and 200 µl each on DAY-6, DAY-8 and DAY-14 to obtain sensitized mice, DAY-0 being the day of the initial sensitization. On DAY-20, 200 µl of the antigen solution was intraperitoneally administered to induce peritonitis. After 48 hours from the induction, each mouse was sacrificed by bleeding to death, and 3 ml of heparin-containing PBS(-) was intraperitoneally injected. Celiotomy was performed and washing solution of the abdominal cavity was recovered. The leukocytes contained in the recovered washing solution were subjected to site spin and a smear specimen was prepared. After staining the specimen by May-Giemsa staining method, the leukocytes were grouped and counted under microscope to determine the number of eosinophils. Compound No. 140 used as the test compound was dissolved in physiological saline and the solution was intravenously administered totally 5 times, i.e., at 16 hours before induction, at the time of induction, at 8 hours, 24 hours and 32 hours after induction, at a dose of 400 mg/kg per each time. […]

Compound: CC(C)(C)CC(=O)N[C@@H](CSSC[C@H](NC(=O)CC(C)(C)C)C(=O)O)C(=O)O [Example 140, 3-((2(R)-carboxy-2(R)-(3,3-dimethylbutanoylamino)ethyl)disulfanyl)-2(R)-(3,3-dimethylbutanoylamino)propionic acid]
- accumulation of leukocytes, especially eosinophils, in the lung [1]: inhibits
- increase in the respiratory resistance [2]: inhibits
- inhibition rate of accumulation of leukocytes, especially eosinophils, to abdominal cavity [3]: 31.1%
